The values below come from ChEMBL document CHEMBL2429756, “Synthesis, docking, and in vitro studies of some substituted bischalcones on acid and alkaline phosphatases” (Med Chem Res, 2013).

The species named for experiment [1] is Capra hircus. Kind of experiment: Inhibition of goat liver acid phosphatase assessed as residual activity using p-nitrophenyl phosphate as substrate at 1 mM after 30 mins relative to control.
The species named for experiment [2] is Capra hircus. As to the kind of experiment: Inhibition of goat liver alkaline phosphatase assessed as residual activity using p-nitrophenyl phosphate as substrate at 1 mM after 30 mins relative to control.
Experiment [3] is described as follows: Competitive inhibition of goat liver alkaline phosphatase assessed as residual activity using p-nitrophenyl phosphate as substrate by Lineweaver-Burk plot analysis. Also on record: species or system Capra hircus.
A short description of experiment [4]: Non-competitive inhibition of goat liver alkaline phosphatase assessed as residual activity using p-nitrophenyl phosphate as substrate by Lineweaver-Burk plot analysis. The arrangement: species or system Capra hircus.

Take `O=C1/C(=C/c2ccc(F)cc2)CCC/C1=C\c1ccc(F)cc1`: the Activity is 140% in the experiment filed under Capra hircus [1] and 57.8% in the experiment listed under Capra hircus [2]. Besides, in experiment [3], the Ki was 1090 µM.
The like results for `O=C1/C(=C/c2ccc(Cl)cc2)CCC/C1=C\c1ccc(Cl)cc1` were, in that order, 129%, 46.2% and 670 µM.
For `Cc1ccc(/C=C2\CCC/C(=C\c3ccc(C)cc3)C2=O)cc1`, the Activity in the experiment listed under Capra hircus [1] came out at 149%; in the experiment listed under Capra hircus [2], 46%. Moreover, the Ki in experiment [4] is 845 µM.
For `CN(C)c1ccc(/C=C2\CCC/C(=C\c3ccc(N(C)C)cc3)C2=O)cc1`, the values for the Activity in the experiment filed under Capra hircus [1] and in the experiment listed under Capra hircus [2] were 113% and 40.2%, respectively. Also, the Ki in experiment [3] is 470 µM.
The like results for `O=C1/C(=C/c2ccccc2)CCC/C1=C\c1ccccc1` [2,6-DIBENZYLIDENECYCLOHEXANONE] were, in that order, 121%, 41.2% and 470 µM.
The like results for `O=C1/C(=C/c2ccc(Br)cc2)CCC/C1=C\c1ccc(Br)cc1` were, in that order, 127%, 43.5% and 565 µM.
For `COc1ccc(/C=C2\CCC/C(=C\c3ccc(OC)cc3)C2=O)cc1`, the values for the Activity in the experiment listed under Capra hircus [1] and in the experiment filed under Capra hircus [2] were 158% and 31.7%, respectively. Besides, the Ki in experiment [3] was 389 µM.
For `O=C1/C(=C/c2ccc([N+](=O)[O-])cc2)CCC/C1=C\c1ccc([N+](=O)[O-])cc1`, the Activity in the experiment filed under Capra hircus [1] was determined as 133%; in the experiment listed under Capra hircus [2], 26%. Besides, in experiment [3], the Ki turned out to be 250 µM.
On to `O=C1/C(=C/C=C/c2ccccc2)CCC/C1=C\C=C\c1ccccc1`, for which the Activity stood at 129% in the experiment listed under Capra hircus [1] and 30.8% in the experiment listed under Capra hircus [2]. Besides, the Ki in experiment [4] came out at 441 µM.
On to `c1ccc([C@H]2CN3CCSC3=N2)cc1` [LEVAMISOLE], for which, in the experiment listed under Capra hircus [2], the Activity came to 88%. Also, in experiment [3], the Ki turned out to be 4000 µM.

The Ki is a measure of affinity in units of concentration, obtained from inhibition or displacement.
